The source of these data is DBAASP.

Experiment in all cases: ≥ marks a high value that may be exact or a test limit, other limits are often not marked, values filed in µg/mL are converted to µM
Test [1] has as its system Acinetobacter baumannii CCARM 12035.
Test [2] has as its system Escherichia coli KCTC 1682.
For test [3], the system named is Staphylococcus aureus CCARM 3089.
For test [4], the system named is Staphylococcus aureus KCTC 1621.
In test [5] the test system is Pseudomonas aeruginosa CCARM 2003.
The test system of test [6] is Pseudomonas aeruginosa CCARM 2002.
Test [7] concerns Acinetobacter baumannii CCARM 12037.
Test [8] deals with Salmonella typhimurium CCARM 8009.
The subject of test [9] is Escherichia coli CCARM 1238.
Test [10] has as its system Staphylococcus aureus KCTC 3881.
Test [11] deals with Bacillus subtilis KCTC 3068.
Test [12] relates to Escherichia coli KCTC 2593.
In test [13] the test system is Bacillus subtilis KCTC 1021.
Test [14] has as its system Staphylococcus aureus KCTC 1916.
Test [15] relates to Staphylococcus aureus CCARM 3090.
In test [16] the test system is Pseudomonas aeruginosa CCARM 2163.
Test [17] has as its system Pseudomonas aeruginosa KCTC 2513.
Test [18] deals with Escherichia coli CCARM 1229.
The subject of test [19] is Staphylococcus epidermidis KCTC 1917.
Test [20] deals with Pseudomonas aeruginosa CCARM 2095.
Test [21] relates to Salmonella typhimurium KCTC 1926.
In test [22] the test system is Salmonella typhimurium CCARM 8003.
For test [23], the system named is Pseudomonas aeruginosa KCTC 1637.
Test [24] deals with Staphylococcus aureus CCARM 3108.
For test [25], the system named is Staphylococcus aureus CCARM 3114.
The subject of test [26] is Acinetobacter baumannii CCARM 12005.
For test [27], the system named is Bacillus subtilis KCTC 1022.
Test [28] relates to Salmonella typhimurium CCARM 8007.
Test [29] concerns Escherichia coli KCTC 2571.
In test [30] the test system is Staphylococcus aureus CCARM 3126.
The test system of test [31] is Pseudomonas aeruginosa KCTC 2004.
Test [32] deals with Acinetobacter baumannii CCARM 12036.
Test [33] relates to Klebsiella aerogenes ATCC 13048.
The subject of test [34] is Escherichia coli DL7.
In test [35] the test system is Bacillus subtilis PS832.
The test system of test [36] is Staphylococcus epidermidis ATCC 12228.
The test system of test [37] is Escherichia coli ATCC 25922.
For test [38], the system named is Pseudomonas aeruginosa ATCC 27853.
Test [39] relates to Klebsiella pneumoniae ATCC 700603.
Test [40] has as its system Staphylococcus aureus ATCC 29213.
For test [41], the system named is Staphylococcus aureus ATCC 700699.
In test [42] the test system is Staphylococcus aureus ATCC 33591.

Values after ≈ are worked out from the molar mass of the structure shown. Values joined by “and” are separate entries in the source; they are usually repeats but may differ in a detail not shown here. Identical values can stand only once.

As usually defined, the MIC is the smallest concentration in the dilution series that meets the test's criterion for growth inhibition. A low value points to greater potency. As for `CC[C@H](C)[C@H](NC(=O)CNC(=O)[C@H](CCCN=C(N)N)NC(=O)[C@H](CCCCN)NC(=O)[C@@H](NC(=O)[C@H](Cc1cnc[nH]1)NC(=O)[C@H](Cc1cnc[nH]1)NC(=O)[C@H](Cc1ccccc1)NC(=O)[C@@H](N)Cc1ccccc1)[C@@H](C)CC)C(=O)N[C@H](C(=O)N[C@@H](Cc1cnc[nH]1)C(=O)N[C@H](C(=O)NCC(=O)N[C@@H](CCCCN)C(=O)N[C@H](C(=O)N[C@H](C(=O)N[C@@H](Cc1cnc[nH]1)C(=O)N[C@@H](CCCN=C(N)N)C(=O)N[C@@H](CC(C)C)C(=O)N[C@H](C(=O)N[C@H](C(=O)NCC(=O)O)[C@@H](C)O)C(C)C)[C@@H](C)CC)[C@@H](C)O)C(C)C)C(C)C` [FFHHIKRGIVHVGKTIHRLVTG], the MIC in test [1] is 4 µM (≈ 10.2 µg/mL); in test [2], 4 µM (≈ 10.2 µg/mL); in test [3] it was 16 µM (≈ 40.8 µg/mL); in test [4] it was 4 µM (≈ 10.2 µg/mL); in test [5], 4 µM (≈ 10.2 µg/mL); in test [6], 4 µM (≈ 10.2 µg/mL). In addition, the MIC was found to be 4 µM (≈ 10.2 µg/mL) in test [7]; 16 µM (≈ 40.8 µg/mL) in test [8]; 16 µM (≈ 40.8 µg/mL) in test [9]; 4 µM (≈ 10.2 µg/mL) in [10]; 4 µM (≈ 10.2 µg/mL) in test [11]; 2 µM (≈ 5.11 µg/mL) in test [12]. The MIC in [13] was determined as 4 µM (≈ 10.2 µg/mL); in [14], 4 µM (≈ 10.2 µg/mL); in test [15], 16 µM (≈ 40.8 µg/mL); in [16] it was 4 µM (≈ 10.2 µg/mL); in test [17], 8 µM (≈ 20.4 µg/mL); in [18] it was 16 µM (≈ 40.8 µg/mL). Also, the MIC in [19] was found to be 2 µM (≈ 5.11 µg/mL); in test [20], 4 µM (≈ 10.2 µg/mL); in test [21] it was 8 µM (≈ 20.4 µg/mL); in [22] it was 16 µM (≈ 40.8 µg/mL); in [23] it was 8 µM (≈ 20.4 µg/mL); in test [24], 16 µM (≈ 40.8 µg/mL). Further, the MIC in test [25] came to 16 µM (≈ 40.8 µg/mL); in test [26], 4 µM (≈ 10.2 µg/mL); in [27], 1 µM (≈ 2.55 µg/mL); in test [28] it was 16 µM (≈ 40.8 µg/mL); in test [29], 4 µM (≈ 10.2 µg/mL); in [30], 16 µM (≈ 40.8 µg/mL). Further, the MIC in [31] is 8 µM (≈ 20.4 µg/mL); in test [32], 4 µM (≈ 10.2 µg/mL).

As to `CC(C)C[C@H](NC(=O)[C@H](CCCCN)NC(=O)[C@H](C)NC(=O)[C@H](CC(C)C)NC(=O)[C@H](CCCCN)NC(=O)[C@H](CCCCN)NC(=O)[C@H](C)NC(=O)[C@H](CC(C)C)NC(=O)[C@H](CCCCN)NC(=O)[C@H](C)NC(=O)[C@H](CC(C)C)NC(=O)[C@H](CCCCN)NC(=O)[C@H](Cc1cnc[nH]1)NC(=O)CNC(=O)CN)C(=O)N[C@@H](C)C(=O)N[C@@H](CCCCN)C(N)=O` [GGHKLAKLAKKLAKLAK], the MIC in test [33] was at least 32 µM; in [34], 0.125 µM and 0.06 µM; in test [35], 0.125 µM and 0.06 µM; in test [36], 1 µM (≈ 1.77 µg/mL).

Turning to `CC[C@H](C)[C@H](NC(=O)[C@H](CC(=O)O)NC(=O)[C@H](CCCCN)NC(=O)[C@H](C)NC(=O)[C@H](C)NC(=O)CNC(=O)[C@H](CCCCN)NC(=O)[C@H](CC(C)C)NC(=O)[C@@H](NC(=O)[C@H](CC(=O)O)NC(=O)[C@@H](NC(=O)[C@@H](NC(=O)CN)C(C)C)C(C)C)[C@@H](C)CC)C(=O)N[C@@H](C)C(=O)NCC(=O)N[C@@H](Cc1cnc[nH]1)C(=O)N[C@@H](CC(C)C)C(=O)N[C@@H](C)C(=O)N[C@@H](CO)C(=O)N[C@@H](CCCCN)C(=O)N[C@H](C(=O)N[C@@H](CCSC)C(=O)N[C@@H](CC(N)=O)C(=O)N[C@@H](C)C(=O)N[C@@H](CC(C)C)C(N)=O)C(C)C` [GVVDILKGAAKDIAGHLASKVMNAL], the MIC in test [37] was 100 µM (≈ 249 µg/mL); in test [38] it was above 100 µM; in [39], above 100 µM; in [40], above 100 µM; in test [41], at least 100 µM; in test [42] it was at least 100 µM.
